{
  "source": "patent US12139505B2",
  "about": "“Compositions useful in therapy of autophagy-related pathologies, and methods of making and using the same” (The University of Toledo, priority 2017, dated 2024)",
  "key": {"SH-SY5Y cells": {"tested_on": "SH-SY5Y cells", "assay": "Cell viability, MTS assay", "assay_type": "cell-based, human", "settings": "for average cell viability: 24 hours; for toxicity to neuroblastoma cells: 0.1 to 1 μM", "experimental": "Synthesized compounds were added to a 3-dram screw capped vial, followed by DMSO (ca. 5 mL) to make a 10 mM stock solution. The test stock solution was made and used on the same day. 100 μL of the 10 mM stock solution was diluted into 900 μL of DMSO (1:9 dilution) to make 1 mM stock solution. 100 μL of the 1 mM stock solution was diluted into 900 μL of DMSO (1:9 dilution) to make a 100 μM solution. 100 μL of the 100 μM stock solution was diluted into 900 µL of DMSO (1:9 dilution) to make a 10 μM stock solution. The test solutions were prepared by using the dilution ratio of 10 μL stock solutions into 990 μL (1:99 dilution) of Complete Culture Media (CCM) to afford drug solution (1% DMSO) from 0.1 to 100 μM. For positive control: 10 mg/mL of TritonX-100 is diluted in CCM. For negative control: 1 μL of DMSO is dissolved in every 100 μL of CCM.\nCells were grown in bulk in 100 mm petri dishes. On the day of use, the cell culture media was removed from the dish. SH-SY5Y cells were washed with PBS, then 0.25% Trypsin/EDTA was used to aid in detaching the cells, CCM was then added to neutralize the Trypsin/EDTA and wash the cells from the dish. Washed cells are collected in a centrifuge tube for concentration. After centrifugation at 2000 RPM for 5 minutes, the cells were re-suspended in CCM. The final concentration of cells was 5×10^3 per 100 μL The 5000 cells/100 μL solution was seeded into a clear, flat bottomed, 96-well microliter plate and incubated for 24 hours at 37° C. in 5% CO2. After 24 hours, the media was removed and replaced by 100 μL CCM containing the drug/positive/negative control and was incubated at 37° C. in a 5% CO2 for 24 hours. After this incubation period, 20 μL of MTS solution was added to each well via a multichannel pipette. The plates were shaken by hand to thoroughly mix the MTS solution into the media and incubated at 37° C. in a 5% CO2 for 4 hours. The absorbance was read at 490 nm using the Synergy Neo microplate reader."}, "RG2 glioma cells [1]": {"tested_on": "RG2 glioma cells", "assay": "Proliferative capacity of glioma cells, tetrazolium reduction assay", "assay_type": "cell-based, rat", "experimental": "Biomarkers of autophagy have been positively correlated with relatively better prognosis (longer patient lifespan) in humans suffering from high grade glioma. Accordingly, phosphonate analogs were tested for ability to reduce replicative capacity in RG2 glioma cells wherein the compounds increase autophagy. Cells were plated at low density (approximately 25,000 cells/[…]) using general cell culture methods, and treated with logarithmic dilutions of test agent. After 24 or 48 hours, cell number was estimated by tetrazolium reduction assay using a commercially available kit (Promega Aqueous OneStep™). […] By 48 h the cells had largely achieved confluence and became somewhat contact inhibited, thus reducing the difference between control and treatment groups."}, "PINK1^B9 flies": {"tested_on": "PINK1^B9 flies", "assay": "Fly climbing assay", "assay_type": "in vivo, Drosophila melanogaster", "settings": "100 μM in media", "experimental": "2-n-hexyl-LKE-P was dissolved in DMSO and supplemented into a warm solution of minimal media (5% sucrose, 2% agarose and water, 60° C.) to a final concentration of 10, 100 and 1000 μM. Freshly eclosed adult flies were transferred to minimal media containing the drug for one day followed by the experiments. The locomotive ability of flies was assessed 10 days after eclosion via a climbing assay. 15 flies were transferred to a tube marked 17.5 cm from the bottom and a digital camera, connected directly to a PC, recorded flies as they cross the line, continuously, for two minutes. Analysis of the recorded video was done by recording the number of flies that remain above the 17.5 cm line every ten seconds. If a fly climbs back down or falls, that fly is removed from the total count at the next 10 second time point. The percentage of flies remaining above the line at the 120 second time point was recorded. The 120 second time point was chosen because it has been previously determined that this is the average amount of time required for all untreated flies to cross the 17.5 cm mark."}, "RG2 glioma cells [2]": {"tested_on": "RG2 glioma cells", "assay": "Autophagic flux assay (LC3-II western blot in the presence of bafilomycin-A1)", "assay_type": "cell-based, rat", "experimental": "In the assay, cells are treated with subtoxic concentrations of bafilomycin-A, which blocks lysosomal acidification. This prevents autophagosome fusion with lysosomes at a specific point. For example, RG2 glioma cells (or other cell types) are “clamped” by addition of 10-50 nM bafilomycin-A1 to block autophagosome fusion with lysosomes and eliminate autophagy clearance. Then, autophagy flux is measured by the conjugation of phosphatidylethanolamine to LC3-I, yielding an electrophoretically separable LC3-II by western blot. LC3-II acts as a link between nascent autophagosomes and cargo being directed into these structures. An autophagy enhancer will increase LC3-II in the presence of bafilomycin, whereas a compound that inhibits autophagy completion will not do so. Thus, the L3A-I to LC3A-II conversion in the presence of bafilomycin-A1 constitutes a valid measure of autophagy.\nFor the assays, rat glioma cells RG2 (ATCC® CRL-2433™; RG2 cells) were cultured. […] The cells were then incubated for an additional 4 h. At termination, the cell culture medium was removed, cells were washed with PBS and lysed on ice in Pierce RIPA buffer containing protease and phosphatase inhibitors.\nWestern Blotting: The proteins were electrophoresed and wet-blotted to polyvinylidine difluoride membranes, blocked overnight in 4% bovine serum albumin, and developed using antibodies obtained from Cell Signaling Technology (L3A: cat #. 4599; ULK1: cat #. 8054, ULK1(p757): cat #. 6880).\nRG2 glioma cells were treated without drug (first column in FIG. 8A) or 4 h with 50 nM bafilomycin-A1 (BAF), the indicated concentration of LK, or the phosphonate analog 2-isopropyl-LK-3-phosphonate. The western blot results are shown in FIG. 8A, where the lower band corresponds to LC3-II. An increase in the intensity of this band in the presence of bafilomycin-A1 indicates increased autophagic flux. […] Similar results are shown in FIG. 9 with respect to the LK-P compound 2-butyl-lanthionine-phosphonate (also referred to as 2-n-butyl-lanthionine-phosphonate or 2-n-butyl-LK-P).\nRG2 glioma cells (American Tissue Type Collection, ATTC, Rockville MD USA) were treated for 4 h with 50 nM bafilomycin-A1 (previously dissolved to 1000× final concentration in dimethylsulfoxide). Thirty minutes after addition of bafilomycin, cells were treated with test agents at 100× final concentration. Cells were lysed in RIPA buffer containing protease and phosphatase inhibitors. Protein concentration was assayed and normalized to constant values (typically 5-7 mg/mL). Proteins were electrophoresed across 4-20% polyacrylamide gels and wet blotted onto polyvinylidine difluoride (PVDF) membranes. Proteins were blotted with commercially available antibodies against LC3."}},
  "note": "“Also recorded” adds a separate entry of the source.",
  "data": [
    {"molecule": "CCCCCCC1=C(P(=O)(O)O)N[C@H](C(=O)OCC)CS1", "note": "[2-n-hexyl-LKE-P]", "values": [
      {"measurement": "concentration at which toxicity begins to show", "setting": "SH-SY5Y cells", "value": 10, "unit": "µM"},
      {"measurement": "average cell viability", "setting": "SH-SY5Y cells; 10 μM", "value": 83, "unit": "%"},
      {"measurement": "average cell viability", "setting": "SH-SY5Y cells; 100 μM", "value": 63, "unit": "%"},
      {"measurement": "toxicity to neuroblastoma cells", "setting": "SH-SY5Y cells", "value": "not toxic"},
      {"measurement": "toxicity to neuroblastoma cells", "setting": "SH-SY5Y cells; listed as 2-n-heyxl-LKE-P", "value": "no toxicity"},
      {"measurement": "fewer cells (reduced replicative capacity) relative to cells treated with no drug", "setting": "RG2 glioma cells [1]; 24 h, greater than or equal to 1 nM", "value": "at least 50%"},
      {"measurement": "concentration range of the minimum in cell number", "setting": "RG2 glioma cells [1]; 48 h", "value": "1 to 10", "unit": "mM"},
      {"measurement": "replication of cultures", "setting": "RG2 glioma cells [1]; first 24 h", "value": "replicated more slowly in the first 24 h"},
      {"measurement": "climbing ability of PINK1^B9 flies", "setting": "PINK1^B9 flies", "value": "statistically significant improvement in the climbing ability; also recorded: significant improvement of PINK1^B9 climbing ability"},
      {"measurement": "concentration at which the compound is potent in stimulating autophagy", "setting": "RG2 glioma cells [2]; RG2 cells, FIG. 32A", "value": 0.1, "unit": "µM"},
      {"measurement": "potency relative to known results for LKE", "setting": "RG2 glioma cells [2]; RG2 cells, FIG. 32A", "value": "approximately 10 fold"},
      {"measurement": "autophagic flux / autophagy stimulation (LC3-II band in the presence of bafilomycin-A1)", "setting": "RG2 glioma cells [2]; RG2 glioma cells, 4 h, 50 nM bafilomycin-A1, western blot", "value": "stimulate autophagy in RG2 cells"}
    ]}
  ]
}
